Where two headings read alike, the source gives them in different places.
What was measured:
Experiment in all cases: stopped-flow CO2 hydrase assay
Type in all cases: biochemical
[1] = target: T1, hCA I (Homo sapiens, UniProt P00915)
T1 construct: gene CA1; cytosolic isoform
Description: stopped-flow CO2 hydrase assay on hCA I

[2] = target: T2, hCA XII (Homo sapiens, UniProt O43570)
T2 construct: gene CA12; trans-membrane isoform
Description: stopped-flow CO2 hydrase assay on hCA XII

[3] = target: T3, hCA II (Homo sapiens, UniProt P00918)
T3 construct: gene CA2
Description: stopped-flow CO2 hydrase assay on hCA II

[4] = target: T4, hCA IX (Homo sapiens, UniProt Q16790)
T4 construct: gene CA9; trans-membrane isoform
Description: stopped-flow CO2 hydrase assay on hCA IX

[5] = target: T2, hCA XII; conditions: read-out: KI (μM)^a / hCA I
[6] = target: T4, hCA IX; conditions: read-out: KI (μM)^a / hCA I
[7] = target: T3, hCA II; conditions: read-out: KI (μM)^a / hCA I

T2 sequence (O43570 30-289 limits assumed): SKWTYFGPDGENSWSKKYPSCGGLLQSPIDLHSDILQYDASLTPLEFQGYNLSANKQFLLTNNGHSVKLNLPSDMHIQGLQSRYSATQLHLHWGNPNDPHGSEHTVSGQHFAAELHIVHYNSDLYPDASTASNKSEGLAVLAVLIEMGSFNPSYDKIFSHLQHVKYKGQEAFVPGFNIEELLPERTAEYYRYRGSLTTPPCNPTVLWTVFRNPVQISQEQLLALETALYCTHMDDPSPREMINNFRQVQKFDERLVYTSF
T1 sequence (P00915 2-261): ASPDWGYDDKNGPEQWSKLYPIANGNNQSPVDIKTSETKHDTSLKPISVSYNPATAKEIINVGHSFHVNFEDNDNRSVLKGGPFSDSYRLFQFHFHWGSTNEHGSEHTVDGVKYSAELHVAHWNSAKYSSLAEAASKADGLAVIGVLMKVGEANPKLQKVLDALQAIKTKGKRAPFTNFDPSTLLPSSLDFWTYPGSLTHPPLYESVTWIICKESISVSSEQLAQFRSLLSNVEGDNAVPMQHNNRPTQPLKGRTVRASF

Structure (SMILES)	Ki [1] [µM]	Ki [2] [µM]	Ki [3] [µM]	Ki [4] [µM]	Ki [5] [µM]	Ki [6] [µM]	Ki [7] [µM]
O=C(O)c1cccc(NC=CC(=O)c2ccc(Cl)cc2)c1 [5h]	> 100	8.6	77.1	19.2			
O=C(O)c1ccc(NCCC(=O)c2ccccc2)cc1 [7b, 3/4-((3-oxo-3-phenylpropyl)amino)benzoic acids 7a–b]	63.8	9.1	16.7	8.3			
O=C(O)c1ccc(NC=CC(=O)c2ccc(Cl)cc2)cc1 [5n]	81.5	4.6	13.5	3.4			
O=C(O)c1ccc(NC=CC(=O)c2ccc([N+](=O)[O-])cc2)cc1 [5p]	95.6	0.85	12.6	4.1			
O=C(O)c1cccc(NC=CC(=O)c2ccc(F)cc2)c1 [5g]	> 100	10.3	68.2	9.6			
O=C(/C=C\Nc1ccccc1C(=O)O)c1ccc(F)cc1 [5b]	> 100	4.3	24.3	13.2			
O=C(/C=C\Nc1ccccc1C(=O)O)c1ccc(Cl)cc1 [5c]	> 100	12.5	32.7	17.7			
O=C(O)CNC(=O)c1ccc(N/C=C/C(=O)c2ccc(Br)cc2)cc1 [12b]	> 100				> 100	> 100	> 100
O=C(O)c1cccc(NC=CC(=O)c2ccc3ccccc3c2)c1 [5k]	> 100	9.7	92.3	11.4			
O=C(O)c1ccc(NC=CC(=O)c2ccc(F)cc2)cc1 [5m]	68.8	1.1	8.7	0.92			
O=C(O)c1ccc(NC=CC(=O)c2ccc(Br)cc2)cc1 [5o]	> 100	6.2	15.3	5.6			
O=C(O)c1cccc(NC=CC(=O)c2ccc([N+](=O)[O-])cc2)c1 [5j]	> 100	8.9	80.7	24.7			
O=C(O)c1cccc(NC=CC(=O)c2ccc(Br)cc2)c1 [5i]	> 100	13.9	81.4	32.5			
O=C(O)CNC(=O)c1ccc(NC=CC(=O)c2ccccc2)cc1 [12a]	> 100				> 100	> 100	> 100
O=C(/C=C\Nc1ccccc1C(=O)O)c1ccc([N+](=O)[O-])cc1 [5d]	> 100	7.8	26.9	14.1			
O=C(/C=C\Nc1ccccc1C(=O)O)c1ccc2ccccc2c1 [5e]	> 100	15.7	49	19.3			
O=C(/C=C\Nc1ccccc1C(=O)O)c1ccccc1 [5a]	> 100	6.4	39.4	10.6			
O=C(O)CNC(=O)c1ccc(N/C=C/C(=O)c2ccc3ccccc3c2)cc1 [12c]	> 100				> 100	> 100	> 100
O=C(O)c1cccc(NCCC(=O)c2ccccc2)c1 [7a, 3/4-((3-oxo-3-phenylpropyl)amino)benzoic acids 7a–b]	> 100	7.4	64.3	23.7			
O=C(O)c1ccc(NC=CC(=O)c2ccc3ccccc3c2)cc1 [5q]	79.4	1.5	7.4	0.76			
O=C(O)c1ccc(NC=CC(=O)c2ccccc2)cc1 [5l]	75.3	0.97	9.8	1.2			
O=C(O)c1cccc(NC=CC(=O)c2ccccc2)c1 [5f]	> 100	9.5	72.8	15.9			
